From patent publication US12247033B2, “Triazole-substituted imidazo[1,2-a]pyrimidines as cGAS inhibitors” (GlaxoSmithKline Intellectual Property Development Limited, priority 2022, dated 2025)
In brackets after ≈: the same amount, converted by molar mass. Several values for one entry are separate records, joined by “and”; a condition that tells them apart may be missing. Identical values can stand only once.

Key:
[1] = tested on: cGAS pathway; test: Whole blood (hWB) cytokine release assay (96-well, Bacmam stimulation, plasma IP-10 by Meso-Scale Discovery plates); format: cell-based; conditions: Table 4, human whole blood from individual healthy donors, 6 h
Method: The whole blood (hWB) cytokine release assay was performed as follows.
Human whole blood was collected from individual healthy donors into a 60 ml syringe containing sodium heparin (5 ml sodium heparin per syringe; Cat #309653, Becton-Dickinson, NJ, US). In a biosafety cabinet, 140 ul of the collected blood was transferred to each well of a 96-well flat bottom plate (Cat #167008, VWR, PA, US). The DMSO stock solution of small molecule cGAS inhibitor (10 mM stock solution) was diluted in PBS to prepare 10× solutions (3-fold dilutions) and 20 ul of the prepared 10× solutions was added to appropriate wells. Plates were shaken for 5 minutes at room temperature then incubated at 37° C. for 30 minutes. The stock solution of purified Bacmam was diluted with PBS+0.1% BSA to prepare a 4% (v/v) solution (10×). To activate the cGAS pathway, 20 uL of Bacmam was added to the blood, and the plates were shaken for 10 minutes at room temperature. PBS was added to achieve a final volume of 200 ul. Plates were then incubated at 37° C. for 6 hours.
Plates were removed from incubator and 100 uL/well PBS added. Plates were gently shaken for 10 minutes at room temperature and centrifuged (3000 rpm, 10 minutes) at room temperature. The plasma layer was removed and transferred to a separate 96-well plate and maintained at −80° C.
Plasma samples were measured for IP-10 levels using the IP-10 detection (U-plex or V-plex) plates (Cat #K151-UFK-4; Cat #K151-NVD-4; Meso-Scale Discovery, Inc.).

[2] = biological target: human CGAS (157-522) (Homo sapiens, UniProt Q8N884); test: biochemical;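 also: biochemical enzyme reaction, 2′3′-cGAMP product measured by RapidFire mass spectrometry (MRM) normalised to c-di-UMP internal standard, inhibition of product formation relative to high and low control wells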
[3] = FaSSIF solubility (Fasted State Simulated Intestinal Fluid); format: physicochemical; conditions: thermodynamic from solid, FaSSIF pH 6.5, 4 h equilibration at room temperature, dynamic range 1-1000 μg/mL
Method: 1 mL of FaSSIF buffer (3 mM sodium taurocholate, 0.75 mM lecithin in sodium phosphate buffer at pH 6.5) was added to manually weighed 1 mg of the solid compound in a 4 mL vial. […] The residual solid was removed by filtration. The supernatant solution was quantified by HPLC-UV using single point calibration of a known concentration of the compound in DMSO. The dynamic range of the assay was 1-1000 μg/mL.

[4] = tested on: CGAS; test: CGAS whole blood cytokine release assay (384-well, BacMam stimulation, IP-10 by cytometric bead array); format: cell-based; conditions: Homo sapiens, 6 h; read-out: hWB pXC50 (converted)
Method in brief: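 Heparinised human donor whole blood mixed with serially diluted compound plus Null BacMam stimulus, incubated 6 h at 37° C, 5% CO2. Supernatant IP-10 quantified by cytometric bead array on flow cytometer (488 nm excitation, 585/40 nm emission); inhibition of IP-10 calculated.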

Chain of human CGAS (157-522) (Q8N884 157-522): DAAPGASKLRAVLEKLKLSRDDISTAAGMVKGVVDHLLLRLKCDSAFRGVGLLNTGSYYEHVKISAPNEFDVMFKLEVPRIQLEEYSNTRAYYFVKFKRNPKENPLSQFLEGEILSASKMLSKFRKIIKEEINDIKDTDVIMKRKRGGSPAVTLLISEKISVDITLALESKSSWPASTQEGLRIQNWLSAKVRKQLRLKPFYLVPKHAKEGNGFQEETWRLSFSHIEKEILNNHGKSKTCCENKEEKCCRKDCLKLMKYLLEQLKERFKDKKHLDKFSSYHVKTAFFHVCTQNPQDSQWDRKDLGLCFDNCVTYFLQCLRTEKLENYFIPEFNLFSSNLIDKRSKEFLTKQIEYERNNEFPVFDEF

In the case of `COc1nc2c(-n3ccnc3)c(-c3nnc(C(F)(F)F)[nH]3)[nH]c2cc1Cl`, the “hWB pXC50” value [1] is reported as < 4.5 and 5.0 and the IC50 [2] is reported as 63.1 nM.

For `Fc1cnc2nc(-c3nc(C(F)(F)F)n[nH]3)c(-c3cnc[nH]3)n2c1` [Example 2, 5-[6-fluoro-3-(1H-imidazol-5-yl)imidazo[1,2-a]pyrimidin-2-yl]-3-(trifluoromethyl)-1H-1,2,4-triazole], the solubility at 4 h [3] was 5 µg/mL (≈ 14.8 µM), the IC50 [4] was 316 nM and the IC50 ([1]; Homo sapiens, read-out: hWB pXC50 (converted)) was 251 nM. It also gave an IC50 [2] of 3.98 nM.
